Test results taken from patent US7713994B2 (Wyeth LLC, priority 2005, dated 2010).

Target: T1, cyclin D1/cdk 4 enzyme (Homo sapiens, UniProt P11802)
T1 construct: made in house; host or cells: Sf9 insect cells, recombinant baculovirus
Experiment: CDK4 ELISA kinase assay (phospho-Rb ser 795 detection)
Format: biochemical
Conditions: In Vitro Enzyme Assay, cyclin D1/cdk 4, read-out: CDK4 IC50
Procedure, shortened: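 ELISA format: plate-bound GST-Rb, 200 μM ATP, Sf9 cyclin/CDK enzyme, 1 h at 30° C; then anti-pRb Ser795 primary overnight at 4° C, HRP secondary, TMB. IC50 after no-substrate background subtraction.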

T1 sequence (P11802 whole entry, species assumed): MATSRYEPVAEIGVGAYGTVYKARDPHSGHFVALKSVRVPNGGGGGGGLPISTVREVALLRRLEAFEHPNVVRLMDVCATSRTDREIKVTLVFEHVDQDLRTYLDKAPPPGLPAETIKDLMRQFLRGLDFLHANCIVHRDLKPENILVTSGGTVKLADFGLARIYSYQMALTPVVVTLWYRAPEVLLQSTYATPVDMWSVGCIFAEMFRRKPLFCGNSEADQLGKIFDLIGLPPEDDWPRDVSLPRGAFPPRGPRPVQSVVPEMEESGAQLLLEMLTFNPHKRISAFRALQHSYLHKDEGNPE
T1 sequence (P24385 whole entry partner, species assumed): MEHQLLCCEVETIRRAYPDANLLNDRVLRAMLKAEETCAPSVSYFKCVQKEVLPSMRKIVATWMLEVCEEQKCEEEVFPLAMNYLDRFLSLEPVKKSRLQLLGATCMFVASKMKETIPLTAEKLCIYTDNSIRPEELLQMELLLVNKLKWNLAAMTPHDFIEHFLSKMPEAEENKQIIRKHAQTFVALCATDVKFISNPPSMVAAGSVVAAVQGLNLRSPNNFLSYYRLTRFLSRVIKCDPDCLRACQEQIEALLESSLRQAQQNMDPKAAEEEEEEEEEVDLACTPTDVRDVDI

Compound	IC50 [µM]
CN1CCN(c2ccc(NC=C3C(=O)NC(=O)c4ccc(C=Cc5ccc6ccccc6c5)cc43)cc2)CC1 [Example 674, 4-{[4-(4-Methyl-piperazin-1-yl)-phenylamino]-methylene}-6-(2-naphthalen-2-yl-vinyl)-4H-isoquinoline-1,3-dione]	11.7
CCN(CC)CCOC=Cc1ccc2c(c1)C(=CNc1ccc(N3CCN(C)CC3)cc1)C(=O)NC2=O [Example 794, 6-[2-(2-Diethylamino-ethoxy)-vinyl]-4-{[4-(4-methyl-piperazin-1-yl)-phenylamino]-methylene}-4H-isoquinoline-1,3-dione]	41.7
CN1CCN(c2ccc(NC=C3C(=O)NC(=O)c4ccc(C=Cc5ccc(C(=O)O)cc5)cc43)cc2)CC1 [Example 727, 4-[2-(4-{[4-(4-Methyl-piperazin-1-yl)-phenylamino]-methylene}-1,3-dioxo-1,2,3,4-tetrahydro-isoquinolin-6-yl)-vinyl]-benzoic acid]	20.4
O=C1NC(=O)c2ccccc2C1=CNc1cccc2c(O)cccc12 [Example 619, 4-[(5-Hydroxy-naphthalen-1-ylamino)-methylene]-4H-isoquinoline-1,3-dione]	14.3
O=C1NC(=O)c2ccccc2C1=CNc1ccc(O)cc1O [Example 568, 4-[(2,4-Dihydroxy-phenylamino)-methylene]-4H-isoquinoline-1,3-dione]	16.9
O=C1NC(=O)c2ccccc2C1=CNc1ccc(O)cc1 [Example 559, 4-[(4-Hydroxy-phenylamino)-methylene]-4H-isoquinoline-1,3-dione]	19.3
O=C1NC(=O)c2ccccc2C1=CNCCc1ccc(O)c(O)c1 [Example 544, 4-{[2-(3,4-Dihydroxy-phenyl)-ethylamino]-methylene}-4H-isoquinoline-1,3-dione]	16.2
CN1CCN(c2ccc(NC=C3C(=O)NC(=O)c4ccc(-c5ccccc5F)cc43)cc2)CC1 [Example 684, 6-(2-Fluoro-phenyl)-4-{[4-(4-methyl-piperazin-1-yl)-phenylamino]-methylene}-4H-isoquinoline-1,3-dione]	12.4
4-({[6-(3-Cyano-phenyl)-1,3-dioxo-2,3-dihydro-1H-isoquinolin-4-ylidenemethyl]-amino}-methyl)-benzenesulfonamide [Example 756]	20.2
N#CCc1ccc(NC=C2C(=O)NC(=O)c3ccc(-c4ccc(C#N)cc4)cc32)cc1 [Example 718, 4-{4-[(4-Cyanomethyl-phenylamino)-methylene]-1,3-dioxo-1,2,3,4-tetrahydro-isoquinolin-6-yl}-benzonitrile]	8.2
CN1CCN(c2ccc(NC=C3C(=O)NC(=O)c4ccc(-c5cccc(C(=O)O)c5)cc43)cc2)CC1 [Example 686, 3-(4-{[4-(4-Methyl-piperazin-1-yl)-phenylamino]-methylene}-1,3-dioxo-1,2,3,4-tetrahydro-isoquinolin-6-yl)-benzoic acid]	6.4
CC(C)c1ccc(-c2ccc3c(c2)C(=CNCc2ccc(O)c(O)c2)C(=O)NC3=O)cc1 [Example 790, 4-[(3,4-Dihydroxy-benzylamino)-methylene]-6-(4-isopropyl-phenyl)-4H-isoquinoline-1,3-dione]	1.45
CCN1CCN(c2ccc(NC=C3C(=O)NC(=O)c4ccccc43)cc2)CC1 [Example 595, 4-{[4-(4-Ethyl-piperazin-1-yl)-phenylamino]-methylene}-4H-isoquinoline-1,3-dione]	27.4
Cc1nnc(NS(=O)(=O)c2ccc(NC=C3C(=O)NC(=O)c4ccccc43)cc2)s1 [Example 549, 4-[(1,3-Dioxo-2,3-dihydro-1H-isoquinolin-4-ylidenemethyl)-amino]-N-(5-methyl-[1,3,4]thiadiazol-2-yl)-benzenesulfonamide]	40.2
COc1ccc(C=Cc2ccc3c(c2)C(=CNc2ccc(N4CCN(C)CC4)cc2)C(=O)NC3=O)cc1 [Example 732, 6-[2-(4-Methoxy-phenyl)-vinyl]-4-{[4-(4-methyl-piperazin-1-yl)-phenylamino]-methylene}-4H-isoquinoline-1,3-dione]	25.8
CN1CCN(c2ccc(NC=C3C(=O)NC(=O)c4ccc(C=Cc5ccccc5)cc43)cc2)CC1 [Example 677, 4-{[4-(4-Methyl-piperazin-1-yl)-phenylamino]-methylene}-6-styryl-4H-isoquinoline-1,3-dione]	14.3
O=C1NC(=O)c2ccccc2C1=CNc1cc(Cl)c([N+](=O)[O-])cc1O [Example 570, 4-[(5-Chloro-2-hydroxy-4-nitro-phenylamino)-methylene]-4H-isoquinoline-1,3-dione]	22
NS(=O)(=O)c1ccc(CNC=C2C(=O)NC(=O)c3ccc(-c4ccc(-c5ccccc5)cc4)cc32)cc1 [Example 757, 4-{[(6-Biphenyl-4-yl-1,3-dioxo-2,3-dihydro-1H-isoquinolin-4-ylidenemethyl)-amino]-methyl}-benzenesulfonamide]	31.1

Compound	IC50 [µM]
CN1CCN(c2ccc(NC=C3C(=O)NC(=O)c4ccc(-c5ccc(-c6ccccc6)cc5)cc43)cc2)CC1 [Example 696, 6-Biphenyl-4-yl-4-{[4-(4-methyl-piperazin-1-yl)-phenylamino]-methylene}-4H-isoquinoline-1,3-dione]	27.3
CN1CCN(c2ccc(NC=C3C(=O)NC(=O)c4ccc(-c5ccc(N(C)C)cc5)cc43)cc2)CC1 [Example 807, 6-(4-Dimethylamino-phenyl)-4-{[4-(4-methyl-piperazin-1-yl)-phenylamino]-methylene}-4H-isoquinoline-1,3-dione]	14.5
N#CCc1ccc(NC=C2C(=O)NC(=O)c3ccc(-c4csc5ccccc45)cc32)cc1 [Example 628, {4-[(6-Benzo[b]thiophen-3-yl-1,3-dioxo-2,3-dihydro-1H-isoquinolin-4-ylidenemethyl)-amino]-phenyl}-acetonitrile]	33.6
CS(=O)(=O)Nc1ccc(CNC=C2C(=O)NC(=O)c3ccccc32)cc1 [Example 589]	36.4
N#CCc1ccc(NC=C2C(=O)NC(=O)c3ccc(-c4ccc(-c5ccccc5)cc4)cc32)cc1 [Example 720, {4-[(6-Biphenyl-4-yl-1,3-dioxo-2,3-dihydro-1H-isoquinolin-4-ylidenemethyl)-amino]-phenyl}-acetonitrile]	21.7
NS(=O)(=O)c1ccc(CNC=C2C(=O)NC(=O)c3ccc(C=CCn4ccnc4)cc32)cc1 [Example 657, 4-({[6-(3-Imidazol-1-yl-propenyl)-1,3-dioxo-2,3-dihydro-1H-isoquinolin-4-ylidenemethyl]-amino}-methyl)-benzenesulfonamide]	2.2
O=C1NC(=O)c2ccc(-c3ccc(-c4ccccc4)cc3)cc2C1=CNCc1ccc(O)c(O)c1 [Example 786, 6-Biphenyl-4-yl-4-[(3,4-dihydroxy-benzylamino)-methylene]-4H-isoquinoline-1,3-dione]	9.74
O=C1NC(=O)c2ccccc2C1=CNCc1cccc(NC(=O)C2CCC2)c1 [Example 587, Cyclobutanecarboxylic acid (3-{[(1,3-dioxo-2,3-dihydro-1H-isoquinolin-4-ylidenemethyl)-amino]-methyl}-phenyl)-amide]	43.5
CCS(=O)(=O)NCc1ccc(N/C=C2\C(=O)NC(=O)c3ccccc32)cc1 [Example 613, Ethanesulfonic acid 4-[(1,3-dioxo-2,3-dihydro-1H-isoquinolin-4-ylidenemethyl)-amino]-benzylamide]	33.1
N#CCc1ccc(NC=C2C(=O)NC(=O)c3ccc(-c4cccc(C#N)c4)cc32)cc1 [Example 719, 3-{4-[(4-Cyanomethyl-phenylamino)-methylene]-1,3-dioxo-1,2,3,4-tetrahydro-isoquinolin-6-yl}-benzonitrile]	27.5
N#CCc1ccc(NC=C2C(=O)NC(=O)c3ccc(C=Cc4ccncc4)cc32)cc1 [Example 649, (4-{[1,3-Dioxo-6-(2-pyridin-4-yl-vinyl)-2,3-dihydro-1H-isoquinolin-4-ylidenemethyl]-amino}-phenyl)-acetonitrile]	20
CN1CCN(c2ccc(NC=C3C(=O)NC(=O)c4ccc(C=C5CCCC5)cc43)cc2)CC1 [Example 828, 6-Cyclopentylidenemethyl-4-{[4-(4-methyl-piperazin-1-yl)-phenylamino]-methylene}-4H-isoquinoline-1,3-dione]	4.4
CN1CCN(c2ccc(NC=C3C(=O)NC(=O)c4ccc(-c5cccc(C#N)c5)cc43)cc2)CC1 [Example 695, 3-(4-{[4-(4-Methyl-piperazin-1-yl)-phenylamino]-methylene}-1,3-dioxo-1,2,3,4-tetrahydro-isoquinolin-6-yl)-benzonitrile]	14.3
N#CCc1ccc(NC=C2C(=O)NC(=O)c3ccc(-c4cccc(C(=O)O)c4)cc32)cc1 [Example 708, 3-{4-[(4-Cyanomethyl-phenylamino)-methylene]-1,3-dioxo-1,2,3,4-tetrahydro-isoquinolin-6-yl}-benzoic acid]	10
Cc1ccccc1-c1ccc2c(c1)C(=CNc1ccc(CC#N)cc1)C(=O)NC2=O [Example 717, {4-[(1,3-Dioxo-6-o-tolyl-2,3-dihydro-1H-isoquinolin-4-ylidenemethyl)-amino]-phenyl}-acetonitrile]	13.3
Cc1ccccc1-c1ccc2c(c1)C(=CNCc1ccc(S(N)(=O)=O)cc1)C(=O)NC2=O [Example 754, 4-{[(1,3-Dioxo-6-o-tolyl-2,3-dihydro-1H-isoquinolin-4-ylidenemethyl)-amino]-methyl}-benzenesulfonamide]	11
N#CCc1ccc(NC=C2C(=O)NC(=O)c3ccc(-c4ccc(Cl)cc4)cc32)cc1 [Example 712, (4-{[6-(4-Chloro-phenyl)-1,3-dioxo-2,3-dihydro-1H-isoquinolin-4-ylidenemethyl]-amino}-phenyl)-acetonitrile]	7.9
C=CCN1CCN(c2ccc(NC=C3C(=O)NC(=O)c4ccccc43)cc2)CC1 [Example 597, 4-{[4-(4-Allyl-piperazin-1-yl)-phenylamino]-methylene}-4H-isoquinoline-1,3-dione]	39.2
